Test results from US11878975B2, “Substituted indole compounds useful as TLR inhibitors” (BRISTOL-MYERS SQUIBB COMPANY, priority 2017, dated 2024).

Key:
Format in all cases: cell-based
human TLR7 = biological target: T1, human TLR7 (Homo sapiens, UniProt Q9NYK1); assay: TLR7 inhibition reporter assay (HEK-Blue cells, SEAP reporter, gardiquimod stimulation); conditions: HEK-Blue cells overexpressing human TLR7, SEAP reporter, gardiquimod 7.5 μM
T1 construct: host or cells: HEK-Blue cells
T1 sequence (Q9NYK1 27-1049): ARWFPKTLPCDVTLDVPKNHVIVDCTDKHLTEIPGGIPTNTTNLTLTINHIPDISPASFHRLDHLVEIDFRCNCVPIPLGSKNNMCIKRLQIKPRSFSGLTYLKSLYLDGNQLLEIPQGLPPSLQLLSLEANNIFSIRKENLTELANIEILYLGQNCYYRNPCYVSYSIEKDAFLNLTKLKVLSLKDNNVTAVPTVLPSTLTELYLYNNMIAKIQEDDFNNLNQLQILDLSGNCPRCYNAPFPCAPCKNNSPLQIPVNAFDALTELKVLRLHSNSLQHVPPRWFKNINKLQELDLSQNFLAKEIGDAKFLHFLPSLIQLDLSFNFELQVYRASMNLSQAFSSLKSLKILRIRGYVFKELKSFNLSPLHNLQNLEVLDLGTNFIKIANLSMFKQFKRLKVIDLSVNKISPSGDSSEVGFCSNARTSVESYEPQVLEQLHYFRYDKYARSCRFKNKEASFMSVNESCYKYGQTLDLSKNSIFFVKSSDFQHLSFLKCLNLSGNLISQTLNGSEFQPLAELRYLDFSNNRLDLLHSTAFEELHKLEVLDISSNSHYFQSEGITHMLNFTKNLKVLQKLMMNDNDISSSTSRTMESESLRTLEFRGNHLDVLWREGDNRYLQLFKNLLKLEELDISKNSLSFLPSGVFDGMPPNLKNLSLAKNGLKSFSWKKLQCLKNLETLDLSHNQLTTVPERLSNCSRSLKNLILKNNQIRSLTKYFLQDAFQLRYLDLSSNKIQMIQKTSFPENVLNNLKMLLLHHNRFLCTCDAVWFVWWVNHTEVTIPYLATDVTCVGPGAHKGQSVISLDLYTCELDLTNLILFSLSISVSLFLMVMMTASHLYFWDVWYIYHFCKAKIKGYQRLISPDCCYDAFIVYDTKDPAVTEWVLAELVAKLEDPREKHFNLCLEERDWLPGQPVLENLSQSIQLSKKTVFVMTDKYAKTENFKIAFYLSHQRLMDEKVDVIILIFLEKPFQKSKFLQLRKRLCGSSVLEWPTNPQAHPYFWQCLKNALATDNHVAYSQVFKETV
How it was run: (§1)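 Dose range 0.05 nM–50 μM; 30 min preincubation, RT. Agonists: TLR7 gardiquimod 7.5 μM, TLR8 R848 15.9 μM, TLR9 ODN2006 5 nM. 22 h, 37 °C, 5% CO2. SEAP (IFN-β minimal promoter with NF-κB/AP-1 sites) via colorimetric detection medium; % inhibition vs agonist+DMSO and reference-inhibitor wells.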

human TLR9 = biological target: T2, human TLR9 (Homo sapiens, UniProt Q9NR96); assay: TLR9 inhibition reporter assay (HEK-Blue cells, SEAP reporter, ODN2006 stimulation); conditions: HEK-Blue cells overexpressing human TLR9, SEAP reporter, ODN2006 5 nM
T2 construct: host or cells: HEK-Blue cells
T2 sequence (Q9NR96 26-1032): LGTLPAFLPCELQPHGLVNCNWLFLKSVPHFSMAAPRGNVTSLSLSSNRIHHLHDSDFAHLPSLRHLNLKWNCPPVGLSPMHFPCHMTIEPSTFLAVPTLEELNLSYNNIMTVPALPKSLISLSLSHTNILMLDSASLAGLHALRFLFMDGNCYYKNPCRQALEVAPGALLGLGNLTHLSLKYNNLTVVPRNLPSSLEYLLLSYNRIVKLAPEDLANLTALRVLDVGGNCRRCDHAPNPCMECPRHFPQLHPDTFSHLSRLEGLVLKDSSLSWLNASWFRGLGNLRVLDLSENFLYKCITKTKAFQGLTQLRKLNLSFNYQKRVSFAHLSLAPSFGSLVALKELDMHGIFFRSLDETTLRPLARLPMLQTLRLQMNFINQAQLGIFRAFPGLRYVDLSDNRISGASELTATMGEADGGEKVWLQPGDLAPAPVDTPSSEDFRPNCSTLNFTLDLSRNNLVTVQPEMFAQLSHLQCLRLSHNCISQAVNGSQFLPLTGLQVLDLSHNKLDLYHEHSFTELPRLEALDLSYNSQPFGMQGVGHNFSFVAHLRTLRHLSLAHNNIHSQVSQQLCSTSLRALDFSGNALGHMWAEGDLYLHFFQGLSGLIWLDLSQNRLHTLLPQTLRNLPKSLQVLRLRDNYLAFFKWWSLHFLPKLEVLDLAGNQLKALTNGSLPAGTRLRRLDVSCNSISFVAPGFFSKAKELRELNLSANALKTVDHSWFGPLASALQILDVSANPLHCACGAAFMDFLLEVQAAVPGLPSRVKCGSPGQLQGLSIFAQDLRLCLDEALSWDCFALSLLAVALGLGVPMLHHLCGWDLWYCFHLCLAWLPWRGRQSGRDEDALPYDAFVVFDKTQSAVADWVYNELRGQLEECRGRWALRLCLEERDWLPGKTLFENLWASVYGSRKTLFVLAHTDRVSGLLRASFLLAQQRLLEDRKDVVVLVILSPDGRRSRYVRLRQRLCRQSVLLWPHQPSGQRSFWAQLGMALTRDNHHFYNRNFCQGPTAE
How it was run: as §1

human TLR8 = biological target: T3, human TLR8 (Homo sapiens, UniProt Q9NR97); assay: TLR8 inhibition reporter assay (HEK-Blue cells, SEAP reporter, R848 stimulation); conditions: HEK-Blue cells overexpressing human TLR8, SEAP reporter, R848 15.9 μM
T3 construct: host or cells: HEK-Blue cells
T3 sequence (Q9NR97 27-1041): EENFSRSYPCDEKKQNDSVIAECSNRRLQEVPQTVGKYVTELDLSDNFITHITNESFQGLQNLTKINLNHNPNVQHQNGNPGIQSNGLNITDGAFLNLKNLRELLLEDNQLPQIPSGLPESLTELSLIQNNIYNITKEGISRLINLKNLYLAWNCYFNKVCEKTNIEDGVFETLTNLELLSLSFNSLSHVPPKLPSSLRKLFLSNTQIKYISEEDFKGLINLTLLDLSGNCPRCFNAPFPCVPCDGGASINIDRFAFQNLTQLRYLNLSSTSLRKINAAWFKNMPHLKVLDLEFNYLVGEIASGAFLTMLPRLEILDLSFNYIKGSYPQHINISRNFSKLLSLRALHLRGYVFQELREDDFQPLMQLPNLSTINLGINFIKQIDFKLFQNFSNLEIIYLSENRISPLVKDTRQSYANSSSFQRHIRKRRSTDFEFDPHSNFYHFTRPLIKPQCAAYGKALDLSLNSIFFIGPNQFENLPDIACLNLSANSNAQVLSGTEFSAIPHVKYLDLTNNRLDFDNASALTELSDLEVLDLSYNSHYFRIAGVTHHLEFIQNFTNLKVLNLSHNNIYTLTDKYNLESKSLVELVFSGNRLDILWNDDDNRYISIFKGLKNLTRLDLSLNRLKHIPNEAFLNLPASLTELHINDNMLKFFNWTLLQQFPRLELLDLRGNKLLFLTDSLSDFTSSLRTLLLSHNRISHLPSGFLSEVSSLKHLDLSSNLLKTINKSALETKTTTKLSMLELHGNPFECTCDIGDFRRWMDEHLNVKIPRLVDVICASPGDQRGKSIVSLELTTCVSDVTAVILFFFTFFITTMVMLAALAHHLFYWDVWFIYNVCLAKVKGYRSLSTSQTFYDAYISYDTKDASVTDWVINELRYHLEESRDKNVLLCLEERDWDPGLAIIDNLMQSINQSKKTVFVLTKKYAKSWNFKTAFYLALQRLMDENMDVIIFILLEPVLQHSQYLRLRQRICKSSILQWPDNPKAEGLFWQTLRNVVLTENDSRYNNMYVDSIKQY
How it was run: as §1

| IC50 (human TLR7) [nM] | IC50 (human TLR9) [nM] | IC50 (human TLR8) [nM] | SMILES |
| --- | --- | --- | --- |
| 8 | 26700 | 11 | Cc1cc(-c2[nH]c3ccc(C4CN(C(=O)CN(C)C)C(C)(C)CO4)cc3c2C(C)C)cn2ncnc12 (single isomer, unassigned) [Example 372, 2-(dimethylamino)-1-(2-(3-isopropyl-2-(8-methyl-[1,2,4]triazolo[1,5-a]pyridin-6-yl)-1H-indol-5-yl)-5,5-dimethylmorpholino)ethanone] |
| 6 | > 50000 | 36 | Cc1cc(-c2[nH]c3ccc(C4CN(C(=O)CN(C)C)C(C)(C)CO4)cc3c2C(C)C)cn2ncnc12 (single isomer, unassigned) [Example 373, 2-(dimethylamino)-1-(2-(3-isopropyl-2-(8-methyl-[1,2,4]triazolo[1,5-a]pyridin-6-yl)-1H-indol-5-yl)-5,5-dimethylmorpholino)ethanone] |
| 1 | 2060 | 4.7 | Cc1cc(-c2[nH]c3ccc(C4CN(C)C(C)(C)CO4)cc3c2C(C)C)cn2ncnc12 (single isomer, unassigned) [Example 375, 2-(3-isopropyl-2-(8-methyl-[1,2,4]triazolo[1,5-a]pyridin-6-yl)-1H-indol-5-yl)-4,5,5-trimethylmorpholine] |
| 2 | 2670 | 2.1 | Cc1cc(-c2[nH]c3ccc(C4CN(C)C(C)(C)CO4)cc3c2C(C)C)cn2ncnc12 (single isomer, unassigned) [Example 376, 2-(3-isopropyl-2-(8-methyl-[1,2,4]triazolo[1,5-a]pyridin-6-yl)-1H-indol-5-yl)-4,5,5-trimethylmorpholine] |
| 12 | 5370 | 70 | Cc1cc(-c2[nH]c3ccc(C4CN(CC(=O)N(C)C)C(C)(C)CO4)cc3c2C(C)C)cn2ncnc12 (single isomer, unassigned) [Example 379, 2-(2-(3-isopropyl-2-(8-methyl-[1,2,4]triazolo[1,5-a]pyridin-6-yl)-1H-indol-5-yl)-5,5-dimethylmorpholino)-N,N-dimethylacetamide] |
| 2 | 2380 | 2.8 | Cc1cc(-c2[nH]c3ccc(CC4CCCN4Cc4ccccc4)cc3c2C(C)C)cn2ncnc12 (single isomer, unassigned) [Example 396, 5-[(1-benzylpyrrolidin-2-yl)methyl]-2-{8-methyl-[1,2,4]triazolo[1,5-a]pyridin-6-yl}-3-(propan-2-yl)-1H-indole] |
| 3 | 1600 | 5.4 | Cc1cc(-c2[nH]c3ccc(CC4CCCN4Cc4ccccc4)cc3c2C(C)C)cn2ncnc12 (single isomer, unassigned) [Example 397, 5-[(1-benzylpyrrolidin-2-yl)methyl]-2-{8-methyl-[1,2,4]triazolo[1,5-a]pyridin-6-yl}-3-(propan-2-yl)-1H-indole] |
| 1 | 597 | 14 | Cc1cc(-c2[nH]c3ccc(C4CCC(N)CC4)cc3c2C(C)C)cc(C)n1 (stereo not drawn) [Example 5] |
| 0.17 | 1260 | 0.47 | COc1cc(-c2[nH]c3ccc(C4CCC(NC5CC5)CC4)cc3c2C(C)C)cn2ncnc12 (stereo not drawn) [Example 10] |
| 2 | 2070 | 3.7 | COc1cc(-c2[nH]c3ccc(C4CCC(NC5CC5)CC4)cc3c2C(C)C)cn2ncnc12 (stereo not drawn) [Example 11] |
| 0.7 | 2130 | 1.6 | COc1cc(-c2[nH]c3ccc(C4CCC(N(C)C5CC5)CC4)cc3c2C(C)C)cn2ncnc12 (stereo not drawn) [Example 12] |
| 1 | 2810 | 4.8 | COc1cc(-c2[nH]c3ccc(C4CCC(N(C)C5CC5)CC4)cc3c2C(C)C)cn2ncnc12 (stereo not drawn) [Example 13] |
| 5 | 4080 | 3.5 | Cc1c(-c2[nH]c3ccc(C4CCC(NC5CC5)CC4)cc3c2C(C)C)cn2ncnc2c1C (stereo not drawn) [Example 14] |
| 0.73 | 3530 | 0.7 | Cc1c(-c2[nH]c3ccc(C4CCC(NC5CC5)CC4)cc3c2C(C)C)cn2ncnc2c1C (stereo not drawn) [Example 17] |
| 5 | 33600 | 38 | COc1cc(-c2[nH]c3ccc(C4CCC(N5CC(F)(F)C5)CC4)cc3c2C(C)C)cn2ncnc12 (stereo not drawn) [Example 18] |

| SMILES | IC50 (human TLR7) [nM] | IC50 (human TLR9) [nM] | IC50 (human TLR8) [nM] |
| --- | --- | --- | --- |
| Cc1cc(-c2[nH]c3ccc(C4CN5CCC4CC5)cc3c2C(C)C)cc(C)n1 (single isomer, unassigned) [Example 362, 3-(2-(2,6-dimethylpyridin-4-yl)-3-isopropyl-1H-indol-5-yl)quinuclidine] | 6 | 432 | 14 |
| Cc1cc(-c2[nH]c3ccc(C4CN5CCC4CC5)cc3c2C(C)C)cc(C)n1 (single isomer, unassigned) [Example 363, 3-(2-(2,6-dimethylpyridin-4-yl)-3-isopropyl-1H-indol-5-yl)quinuclidine] | 2 | 438 | 5.3 |
